Values of other authors, collected in patent publication US10238615B2 (Bracco S.P.A., priority 2011, dated 2019).

SMILES: N[C@@H](Cc1cc(I)c(Oc2ccc(O)c(I)c2)c(I)c1)C(=O)O [Example T3, 3,5,3′-triiodothyronine]
- Plasma level of total T3 obtained by standard therapy (20 μg T3): 196.6 ng/dL
- Time of peak level in serum (synthetic T3 once administered): 2 to 3 h
- Time to complete clearance from blood (synthetic T3 once administered): 12 to 24 h
- Serum levels of thyreotropic hormone (TSH) (euthyroid rats): significant reduction
